Data published in patent publication US7300946B2, “N-(substituted arylmethyl)-4-(disubstituted methyl) piperidines and pyridines” (Bayer CropScience AG, priority 2002, dated 2007).

Test system: tobacco budworm (Heliothis virescens [Fabricius])
Assay: surface-treated diet test against the tobacco budworm
Type: in vivo
Conditions: tobacco budworm second instar larvae, surface-treated diet, 0.25 millimoles of candidate insecticide on the surface of the diet, five-day exposure; for Percent Mortality: compared to total number of insects infested; for Percent Growth Inhibition: inhibition of insect weight relative to untreated controls
Summary of the method: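 Wheat germ artificial diet surface-treated with 40 µL of 50 mM DMSO stock diluted 1:7 in 1:1 water/acetone (0.25 millimolar on diet), or sub-multiples for rate tests. One second-instar larva per well, 25° C, 60% RH, 5 days; percent weight inhibition vs DMSO controls and percent mortality.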

Compound | Percent Mortality | Percent Growth Inhibition
O=C(Nc1cc(F)cc(F)c1)OC(c1ccc(Cl)c(Cl)c1)C1CCN(Cc2ccc(Oc3ccccn3)cc2)CC1 (stereo not shown) [Compound 647] | 100% | 100%
COc1cccc(NC(=O)OC(c2ccc(Cl)c(Cl)c2)C2CCN(Cc3ccc(Oc4ccccn4)cc3)CC2)c1 (stereo not shown) [Compound 648] | – | 100%
O=C(Nc1cccc(C(F)(F)F)c1)OC(c1ccc(Cl)c(Cl)c1)C1CCN(Cc2ccc(Oc3ccccn3)cc2)CC1 (stereo not shown) [Compound 650] | 100% | 100%
O=C(Nc1ccc(C(F)(F)F)cc1)OC(c1ccc(Cl)c(Cl)c1)C1CCN(Cc2ccc(Oc3ccccn3)cc2)CC1 (stereo not shown) [Compound 651] | 100% | 100%
O=C(Nc1ccc(Cl)cc1)OC(c1cccc(C(F)(F)F)c1)C1CCN(Cc2ccc(Oc3ccccn3)cc2)CC1 (stereo not shown) [Compound 652] | 100% | 100%
O=C(Nc1ccc(F)cc1)OC(c1cccc(C(F)(F)F)c1)C1CCN(Cc2ccc(Oc3ccccn3)cc2)CC1 (stereo not shown) [Compound 653] | 100% | 100%
O=C(Nc1cc(F)cc(F)c1)OC(c1cccc(C(F)(F)F)c1)C1CCN(Cc2ccc(Oc3ccccn3)cc2)CC1 (stereo not shown) [Compound 654] | 100% | 100%
O=C(Nc1cccc(C(F)(F)F)c1)OC(c1cccc(C(F)(F)F)c1)C1CCN(Cc2ccc(Oc3ccccn3)cc2)CC1 (stereo not shown) [Compound 655] | 100% | 100%
O=C(Nc1ccc(C(F)(F)F)cc1)OC(c1cccc(C(F)(F)F)c1)C1CCN(Cc2ccc(Oc3ccccn3)cc2)CC1 (stereo not shown) [Compound 656] | 100% | 100%
O=C(Nc1ccccc1)OC(c1ccc(C(F)(F)F)cc1)C1CCN(Cc2ccc(Oc3ccccn3)cc2)CC1 (stereo not shown) [Compound 657] | 100% | 100%
CN(C(=O)OC(c1ccc(C(F)(F)F)cc1)C1CCN(Cc2ccc(Oc3ccccn3)cc2)CC1)c1ccccc1 (stereo not shown) [Compound 658] | 0% | 100%
O=C(NCc1ccccc1)OC(c1ccc(C(F)(F)F)cc1)C1CCN(Cc2ccc(Oc3ccccn3)cc2)CC1 (stereo not shown) [Compound 659] | 50% | 100%
CC(NC(=O)OC(c1ccc(C(F)(F)F)cc1)C1CCN(Cc2ccc(Oc3ccccn3)cc2)CC1)c1ccccc1 (stereo not shown) [Compound 660] | 0% | 98%
O=C(Oc1ccccc1)OC(c1ccc(C(F)(F)F)cc1)C1CCN(Cc2ccc(Oc3ccccn3)cc2)CC1 (stereo not shown) [Compound 661] | 0% | 91%
O=C(Nc1ccccc1Cl)OC(c1ccc(C(F)(F)F)cc1)C1CCN(Cc2ccc(Oc3ccccn3)cc2)CC1 (stereo not shown) [Compound 662] | 100% | 100%
O=C(NCc1ccccc1Cl)OC(c1ccc(C(F)(F)F)cc1)C1CCN(Cc2ccc(Oc3ccccn3)cc2)CC1 (stereo not shown) [Compound 663] | 50% | 100%
O=C(Nc1cccc(Cl)c1)OC(c1ccc(C(F)(F)F)cc1)C1CCN(Cc2ccc(Oc3ccccn3)cc2)CC1 (stereo not shown) [Compound 664] | 100% | 100%
O=C(Nc1ccc(Cl)cc1)OC(c1ccc(C(F)(F)F)cc1)C1CCN(Cc2ccc(Oc3ccccn3)cc2)CC1 (stereo not shown) [Compound 665] | 0% | 100%
O=C(Nc1ccc(Cl)cc1)OC(c1ccc(C(F)(F)F)cc1)C1CCN(Cc2ccc(Oc3ccccn3)cc2)CC1 (stereo not shown) [Compound 666] | 100% | 100%
FC(F)(F)c1ccc(C(OC(=S)Nc2ccc(Cl)cc2)C2CCN(Cc3ccc(Oc4ccccn4)cc3)CC2)cc1 (stereo not shown) [Compound 667] | 100% | 100%
O=C(NS(=O)(=O)c1ccc(Cl)cc1)OC(c1ccc(C(F)(F)F)cc1)C1CCN(Cc2ccc(Oc3ccccn3)cc2)CC1 (stereo not shown) [Compound 668] | 0% | 25%
O=C(Nc1ccc(Cl)cc1)OC(c1ccc(C(F)(F)F)cc1)C1CCN(Cc2ccc(Oc3cccc[n+]3[O-])cc2)CC1 (stereo not shown) [Compound 669] | 100% | 100%
N#Cc1cccnc1Oc1ccc(CN2CCC(C(OC(=O)Nc3ccc(Cl)cc3)c3ccc(C(F)(F)F)cc3)CC2)cc1 (stereo not shown) [Compound 670] | 100% | 100%
N#Cc1ccc(Oc2ccc(CN3CCC(C(OC(=O)Nc4ccc(Cl)cc4)c4ccc(C(F)(F)F)cc4)CC3)cc2)nc1 (stereo not shown) [Compound 671] | 100% | 100%
O=C(Nc1cccc(Br)c1)OC(c1ccc(C(F)(F)F)cc1)C1CCN(Cc2ccc(Oc3ccccn3)cc2)CC1 (stereo not shown) [Compound 672] | 100% | 100%

Compound | Percent Mortality | Percent Growth Inhibition
O=C(Nc1ccc(Br)cc1)OC(c1ccc(C(F)(F)F)cc1)C1CCN(Cc2ccc(Oc3ccccn3)cc2)CC1 (stereo not shown) [Compound 673] | 100% | 100%
O=C(Nc1cccc(F)c1)OC(c1ccc(C(F)(F)F)cc1)C1CCN(Cc2ccc(Oc3ccccn3)cc2)CC1 (stereo not shown) [Compound 674] | 100% | 100%
O=C(Nc1ccc(F)cc1)OC(c1ccc(C(F)(F)F)cc1)C1CCN(Cc2ccc(Oc3ccccn3)cc2)CC1 (stereo not shown) [Compound 675] | 100% | 100%
O=C(NCc1ccc(F)cc1)OC(c1ccc(C(F)(F)F)cc1)C1CCN(Cc2ccc(Oc3ccccn3)cc2)CC1 (stereo not shown) [Compound 676] | 100% | 100%
O=C(Nc1ccc(I)cc1)OC(c1ccc(C(F)(F)F)cc1)C1CCN(Cc2ccc(Oc3ccccn3)cc2)CC1 (stereo not shown) [Compound 677] | 100% | 100%
O=C(NCc1ccc(Cl)cc1Cl)OC(c1ccc(C(F)(F)F)cc1)C1CCN(Cc2ccc(Oc3ccccn3)cc2)CC1 (stereo not shown) [Compound 678] | 100% | 100%
O=C(Nc1ccc(F)cc1F)OC(c1ccc(C(F)(F)F)cc1)C1CCN(Cc2ccc(Oc3ccccn3)cc2)CC1 (stereo not shown) [Compound 679] | 100% | 100%
O=C(Nc1cc(F)cc(F)c1)OC(c1ccc(C(F)(F)F)cc1)C1CCN(Cc2ccc(Oc3ccccn3)cc2)CC1 (stereo not shown) [Compound 680] | 17% | 100%
Fc1cc(F)cc(NC(=S)OC(c2ccc(C(F)(F)F)cc2)C2CCN(Cc3ccc(Oc4ccccn4)cc3)CC2)c1 (stereo not shown) [Compound 681] | 100% | 100%
O=C(Nc1cc(F)cc(F)c1)OC(c1ccc(C(F)(F)F)cc1)C1CCN(Cc2ccc(Oc3cccc[n+]3[O-])cc2)CC1 (stereo not shown) [Compound 682] | 100% | 100%
O=C(Nc1cc(F)cc(F)c1)OC(c1ccc(C(F)(F)F)cc1)C1CCN(Cc2ccc(Oc3ncccc3Cl)cc2)CC1 (stereo not shown) [Compound 683] | 100% | 100%
O=C(Nc1cc(F)cc(F)c1)OC(c1ccc(C(F)(F)F)cc1)C1CCN(Cc2ccc(Oc3ccc(Cl)cn3)cc2)CC1 (stereo not shown) [Compound 684] | 100% | 100%
O=C(Nc1cc(F)cc(F)c1)OC(c1ccc(C(F)(F)F)cc1)C1CCN(Cc2ccc(Oc3cccc(Cl)n3)cc2)CC1 (stereo not shown) [Compound 685] | 100% | 100%
O=C(Nc1cc(F)cc(F)c1)OC(c1ccc(C(F)(F)F)cc1)C1CCN(Cc2ccc(Oc3ncc(Cl)cc3Cl)cc2)CC1 (stereo not shown) [Compound 686] | 17% | 98%
N#Cc1cccnc1Oc1ccc(CN2CCC(C(OC(=O)Nc3cc(F)cc(F)c3)c3ccc(C(F)(F)F)cc3)CC2)cc1 (stereo not shown) [Compound 687] | 100% | 100%
N#Cc1ccc(Oc2ccc(CN3CCC(C(OC(=O)Nc4cc(F)cc(F)c4)c4ccc(C(F)(F)F)cc4)CC3)cc2)nc1 (stereo not shown) [Compound 688] | 100% | 100%
O=C(Nc1cc(F)cc(F)c1)OC(c1ccc(C(F)(F)F)cc1)C1CCN(Cc2ccc(Oc3ncccc3C(F)(F)F)cc2)CC1 (stereo not shown) [Compound 689] | 100% | 100%
O=C(Nc1cc(F)cc(F)c1)OC(c1ccc(C(F)(F)F)cc1)C1CCN(Cc2ccc(Oc3cc(C(F)(F)F)ccn3)cc2)CC1 (stereo not shown) [Compound 690] | 100% | 100%
O=C(Nc1cc(F)cc(F)c1)OC(c1ccc(C(F)(F)F)cc1)C1CCN(Cc2ccc(Oc3ccc(C(F)(F)F)cn3)cc2)CC1 (stereo not shown) [Compound 691] | 100% | 100%
FC(F)(F)c1ccc(C(OC(=S)Nc2cccc(C(F)(F)F)c2)C2CCN(Cc3ccc(Oc4ccccn4)cc3)CC2)cc1 (stereo not shown) [Compound 692] | 100% | 100%
FC(F)(F)c1ccc(NC(=S)OC(c2ccc(C(F)(F)F)cc2)C2CCN(Cc3ccc(Oc4ccccn4)cc3)CC2)cc1 (stereo not shown) [Compound 693] | 100% | 100%
Cc1cccc(CNC(=O)OC(c2ccc(C(F)(F)F)cc2)C2CCN(Cc3ccc(Oc4ccccn4)cc3)CC2)c1 (stereo not shown) [Compound 694] | 50% | 100%
Cc1ccc(CNC(=O)OC(c2ccc(C(F)(F)F)cc2)C2CCN(Cc3ccc(Oc4ccccn4)cc3)CC2)cc1 (stereo not shown) [Compound 695] | 100% | 100%
Cc1ccc(S(=O)(=O)NC(=O)OC(c2ccc(C(F)(F)F)cc2)C2CCN(Cc3ccc(Oc4ccccn4)cc3)CC2)cc1 (stereo not shown) [Compound 696] | 0% | 32%
